Reference: patent US9714243B2, “4-pyridinonetriazine derivatives as HIV integrase inhibitors” (Merck Sharp & Dohme Corp., priority 2012, dated 2017)
Like-named read-outs stand apart in the source and are kept apart here.

System: HIV-1 (NL4-3 strain)
Assay: Assay for inhibition of HIV replication (ViKinG; infected MT4-GFP cells)
Type: cell-based
Procedure: Assay for inhibition of HIV replication
MT4-GFP cells (250,000 cells/ml) were bulk-infected with HIV-1 (NL4-3 strain) at low multiplicity of infection (MOI) in RPMI+10% FBS for 24 hours. […] Test compounds were serial-diluted in DMSO on ECHO. The infected MT4-GFP cells were added to a 384-well poly-D-lysine coated black plate with clear bottom in which the diluted test compounds were placed. The cells were seeded at 8,000 cells per well and the final DMSO concentration was 0.4%. The infected cells (Green GFP cells) were quantified at both 24 and 48 hours post incubation using Acumen eX3. Viral reproductive ratio (R0) was determined using the number of infected cells at 48 hours divided by the number of infected cells at 24 hours. Percent viral growth inhibition was calculated by [1−(R−Rtripledrug)/(RDMSO−Rtripledrug)]*100. Compound potency IP or IC50 was determined by a 4-parameter dose response curve analysis.

[1] = MT4-GFP cells infected with HIV-1 NL4-3, 0% normal human serum (NHS), read-out: ViKinG IP (nM) with 0% NHS
[2] = MT4-GFP cells infected with HIV-1 NL4-3, 100% normal human serum (NHS), read-out: ViKinG IP (nM) with 100% NHS
[3] = MT4-GFP cells infected with HIV-1 NL4-3, 10% normal human serum (NHS), read-out: ViKinG IP (nM) with 10% NHS
[4] = Human immunodeficiency virus 1, NL43, MT4-GFP cells infected with HIV-1 NL4-3, 0% normal human serum (NHS), read-out: ViKinG IP (nM) with 0% NHS
[5] = Human immunodeficiency virus 1, NL43, MT4-GFP cells infected with HIV-1 NL4-3, 10% normal human serum (NHS), read-out: ViKinG IP (nM) with 10% NHS
[6] = Human immunodeficiency virus 1, NL43, MT4-GFP cells infected with HIV-1 NL4-3, 100% normal human serum (NHS), read-out: ViKinG IP (nM) with 100% NHS

| Structure (SMILES) | IC50 [1] | IC50 [3] | other results |
| --- | --- | --- | --- |
| CCN1C(=O)c2c(O)c(=O)c(-c3nnc(Cc4ccc(F)cc4F)s3)cn2N(C)C12CCC(C(=O)N(C)CC(F)(F)F)CC2 (stereo not drawn) [Compound 103] | 6.88 nM | – | IC50 [2]: 143 nM |
| CN1C(=O)c2c(O)c(=O)c(-c3nnc(Cc4ccc(F)cc4F)s3)cn2N(C)C12CCC(C(N)=O)CC2 (stereo not drawn) [Compound 106] | 186 nM | 812 nM | – |
| CN1C(=O)c2c(O)c(=O)c(-c3nnc(Cc4ccc(F)cc4F)s3)cn2N(C)C12CCC(C(N)=O)CC2 (stereo not drawn) [Compound 107] | 4.96 nM | 46.4 nM | – |
| CN(CC(F)(F)F)C(=O)C1CCC2(CC1)N(C)C(=O)c1c(O)c(=O)c(-c3nnc(Cc4ccc(F)cc4F)s3)cn1N2C (stereo not drawn) [Compound 108] | – | – | IC50 [4]: 24 nM; IC50 [5]: 16.1 nM; IC50 [6]: 478 nM |
| CN(C(=O)C1CCC2(CC1)N(C)C(=O)c1c(O)c(=O)c(-c3nnc(Cc4ccc(F)cc4F)s3)cn1N2C)C1CC1 (stereo not drawn) [Compound 109] | 12.1 nM | – | IC50 [5]: 18.2 nM |
| CN(C(=O)C1CCC2(CC1)N(C)C(=O)c1c(O)c(=O)c(-c3nnc(Cc4ccc(F)cc4F)s3)cn1N2C)C1CC1 (stereo not drawn) [Compound 110] | 5.82 nM | 10.7 nM | – |
| CN1C(=O)c2c(O)c(=O)c(-c3nnc(Cc4ccc(F)cc4F)s3)cn2N(C)C12CCC(C(=O)NCC(F)(F)F)CC2 (stereo not drawn) [Compound 111] | 26.6 nM | 193 nM | – |
| CN1C(=O)c2c(O)c(=O)c(-c3nnc(Cc4ccc(F)cc4F)s3)cn2N(C)C12CCC(C(=O)NCC(F)(F)F)CC2 (stereo not drawn) [Compound 112] | 3.36 nM | 11.1 nM | – |
| CN1C(=O)c2c(O)c(=O)c(-c3nnc(Cc4ccc(F)cc4F)s3)cn2N(C)C12CCC(C(=O)NC1(C)CC1)CC2 (stereo not drawn) [Compound 113] | 22.2 nM | 72.2 nM | – |
| CN1C(=O)c2c(O)c(=O)c(-c3nnc(Cc4ccc(F)cc4F)s3)cn2N(C)C12CCC(C(=O)NC1(C)CC1)CC2 (stereo not drawn) [Compound 114] | 4.69 nM | 9.07 nM | – |
| CN1C(=O)c2c(O)c(=O)c(-c3nnc(Cc4ccc(F)cc4F)s3)cn2N(C)C12CCC(C(=O)N1CCCC1)CC2 (stereo not drawn) [Compound 115] | 16.4 nM | 39.5 nM | – |
| CN1C(=O)c2c(O)c(=O)c(-c3nnc(Cc4ccc(F)cc4F)s3)cn2N(C)C12CCC(C(=O)N1CCCC1)CC2 (stereo not drawn) [Compound 116] | 3.94 nM | 15.2 nM | – |
| CN1C(=O)c2c(O)c(=O)c(-c3nnc(Cc4ccc(F)cc4F)s3)cn2N(C)C12CCC(C(=O)N1CCC(F)(F)C1)CC2 (stereo not drawn) [Compound 117] | – | 42.7 nM | IC50 [4]: 20.4 nM |
| CN1C(=O)c2c(O)c(=O)c(-c3nnc(Cc4ccc(F)cc4F)s3)cn2N(C)C12CCC(C(=O)N1CCC(F)(F)C1)CC2 (stereo not drawn) [Compound 118] | 14.4 nM | 8.43 nM | – |
| CN1C(=O)c2c(O)c(=O)c(-c3nnc(Cc4ccc(F)cc4F)s3)cn2N(C)C12CCC(C(=O)N1CC(F)(F)C1)CC2 (stereo not drawn) [Compound 119] | – | 35.6 nM | IC50 [4]: 5.26 nM; IC50 [2]: 189 nM |
| CN1C(=O)c2c(O)c(=O)c(-c3nnc(Cc4ccc(F)cc4F)s3)cn2N(C)C12CCC(C(=O)N1CC(F)(F)C1)CC2 (stereo not drawn) [Compound 120] | 5.51 nM | 11.7 nM | IC50 [2]: 516 nM |
| COCCNC(=O)C1CCC2(CC1)N(C)C(=O)c1c(O)c(=O)c(-c3nnc(Cc4ccc(F)cc4F)s3)cn1N2C (stereo not drawn) [Compound 121] | 102 nM | 240 nM | – |
| COCCNC(=O)C1CCC2(CC1)N(C)C(=O)c1c(O)c(=O)c(-c3nnc(Cc4ccc(F)cc4F)s3)cn1N2C (stereo not drawn) [Compound 122] | 5.51 nM | 18.4 nM | – |
| CN1C(=O)c2c(O)c(=O)c(-c3nnc(Cc4ccc(F)cc4F)s3)cn2N(C)C12CCC(C(=O)NCC1(O)CC1)CC2 (stereo not drawn) [Compound 123] | 47.1 nM | 103 nM | – |
| CN1C(=O)c2c(O)c(=O)c(-c3nnc(Cc4ccc(F)cc4F)s3)cn2N(C)C12CCC(C(=O)NCC1(O)CC1)CC2 (stereo not drawn) [Compound 124] | 11.3 nM | 22.6 nM | – |
| CN(C)CCNC(=O)C1CCC2(CC1)N(C)C(=O)c1c(O)c(=O)c(-c3nnc(Cc4ccc(F)cc4F)s3)cn1N2C (stereo not drawn) [Compound 125] | 374 nM | 543 nM | – |
| CN(C)CCNC(=O)C1CCC2(CC1)N(C)C(=O)c1c(O)c(=O)c(-c3nnc(Cc4ccc(F)cc4F)s3)cn1N2C (stereo not drawn) [Compound 126] | 24.3 nM | 82.2 nM | – |
| CN1C(=O)c2c(O)c(=O)c(-c3nnc(Cc4ccc(F)cc4F)s3)cn2N(C)C12CCC(C(=O)NCc1cnoc1)CC2 (stereo not drawn) [Compound 127] | – | 376 nM | IC50 [4]: 112 nM |
| CN1C(=O)c2c(O)c(=O)c(-c3nnc(Cc4ccc(F)cc4F)s3)cn2N(C)C12CCC(C(=O)NCc1cnoc1)CC2 (stereo not drawn) [Compound 128] | 81.8 nM | 101 nM | – |

| Structure (SMILES) | IC50 [1] | IC50 [3] | other results |
| --- | --- | --- | --- |
| CN1C(=O)c2c(O)c(=O)c(-c3nnc(Cc4ccc(F)cc4F)s3)cn2N(C)C12CCC(C(=O)NCC1CCOC1)CC2 (stereo not drawn) [Compound 129] | 67.7 nM | 1080 nM | – |
| CN1C(=O)c2c(O)c(=O)c(-c3nnc(Cc4ccc(F)cc4F)s3)cn2N(C)C12CCC(C(=O)NCC1CCOC1)CC2 (stereo not drawn) [Compound 130] | 13.7 nM | 33.9 nM | – |
| CN1C(=O)c2c(O)c(=O)c(-c3nnc(Cc4ccc(F)cc4F)s3)cn2N(C)C12CCC(C(=O)NCc1cn(C)cn1)CC2 (stereo not drawn) [Compound 131] | 459 nM | 642 nM | – |
| CN1C(=O)c2c(O)c(=O)c(-c3nnc(Cc4ccc(F)cc4F)s3)cn2N(C)C12CCC(C(=O)NCc1cn(C)cn1)CC2 (stereo not drawn) [Compound 132] | 109 nM | 173 nM | – |
| CN1C(=O)c2c(O)c(=O)c(-c3nnc(Cc4ccc(F)cc4F)s3)cn2N(C)C12CCC(C(=O)NCc1cncs1)CC2 (stereo not drawn) [Compound 133] | 190 nM | 548 nM | – |
| CN1C(=O)c2c(O)c(=O)c(-c3nnc(Cc4ccc(F)cc4F)s3)cn2N(C)C12CCC(C(=O)NCc1cncs1)CC2 (stereo not drawn) [Compound 134] | 20.9 nM | 122 nM | – |
| COc1cc(CNC(=O)C2CCC3(CC2)N(C)C(=O)c2c(O)c(=O)c(-c4nnc(Cc5ccc(F)cc5F)s4)cn2N3C)on1 (stereo not drawn) [Compound 135] | 76.3 nM | – | IC50 [5]: 290 nM |
| COc1cc(CNC(=O)C2CCC3(CC2)N(C)C(=O)c2c(O)c(=O)c(-c4nnc(Cc5ccc(F)cc5F)s4)cn2N3C)on1 (stereo not drawn) [Compound 136] | 30.8 nM | 151 nM | – |
| CN1C(=O)c2c(O)c(=O)c(-c3nnc(Cc4ccc(F)cc4F)s3)cn2N(C)C12CCC(C(=O)NCC1CCS(=O)(=O)C1)CC2 (stereo not drawn) [Compound 137] | 108 nM | – | IC50 [5]: 707 nM |
| CN1C(=O)c2c(O)c(=O)c(-c3nnc(Cc4ccc(F)cc4F)s3)cn2N(C)C12CCC(C(=O)NCC1CCS(=O)(=O)C1)CC2 (stereo not drawn) [Compound 138] | 445 nM | 1180 nM | – |
| CN(CCNC(=O)C1CCC2(CC1)N(C)C(=O)c1c(O)c(=O)c(-c3nnc(Cc4ccc(F)cc4F)s3)cn1N2C)C(=O)OC(C)(C)C (stereo not drawn) [Compound 139] | – | 186 nM | IC50 [4]: 54.3 nM |
| CN(CCNC(=O)C1CCC2(CC1)N(C)C(=O)c1c(O)c(=O)c(-c3nnc(Cc4ccc(F)cc4F)s3)cn1N2C)C(=O)OC(C)(C)C (stereo not drawn) [Compound 140] | 61.6 nM | 28.2 nM | – |
| CN1C(=O)c2c(O)c(=O)c(-c3nnc(Cc4ccc(F)cc4F)s3)cn2N(C)C12CCC(C(=O)NC1CC1)C2 (stereo not drawn) [Compound 141] | – | – | IC50 [4]: 59.7 nM; IC50 [6]: 1990 nM |
| CN1C(=O)c2c(O)c(=O)c(-c3nnc(Cc4ccc(F)cc4F)s3)cn2N(C)C12CC[C@@H](C(=O)NC1CC1)C(C)(C)C2 (stereo partly drawn) [Compound 142] | – | – | IC50 [4]: 5.63 nM; IC50 [6]: 558 nM |
| CN1C(=O)c2c(O)c(=O)c(-c3nnc(Cc4ccc(F)cc4F)s3)cn2N(C)C12CC[C@@H](C(=O)NC1CC1)C(C)(C)C2 (stereo partly drawn) [Compound 143] | 7.48 nM | – | IC50 [2]: 817 nM |
| CC(C)[C@]1(C(=O)NC2CC2)CCC2(C1)N(C)C(=O)c1c(O)c(=O)c(-c3nnc(Cc4ccc(F)cc4F)s3)cn1N2C (stereo partly drawn) [Compound 144] | – | – | IC50 [4]: 10.7 nM; IC50 [6]: 205 nM |
| CN(C)C(=O)C1CCC2(CC1)N(C)C(=O)c1c(O)c(=O)c(-c3nnc(Cc4ccc(F)cc4)s3)cn1N2C (stereo not drawn) [Compound 145] | – | 102 nM | – |
| CN(C)C(=O)C1CCC2(CC1)N(C)C(=O)c1c(O)c(=O)c(-c3nnc(Cc4ccc(F)cc4)s3)cn1N2C (stereo not drawn) [Compound 146] | – | 9.02 nM | IC50 [6]: 188 nM |
| CN(C)C(=O)C1(C)CCC2(CC1)N(C)C(=O)c1c(O)c(=O)c(-c3nnc(Cc4ccc(F)cc4)s3)cn1N2C (stereo not drawn) [Compound 147] | – | – | IC50 [5]: 15.1 nM; IC50 [6]: 117 nM |
| CN(C)C(=O)C1(C)CCC2(CC1)N(C)C(=O)c1c(O)c(=O)c(-c3nnc(Cc4ccc(F)cc4)s3)cn1N2C (stereo not drawn) [Compound 148] | – | 8.6 nM | IC50 [2]: 119 nM |
| C[C@H]1CC2(CC[C@@H]1C(=O)N(C)C)N(C)C(=O)c1c(O)c(=O)c(-c3nnc(Cc4ccc(F)cc4)s3)cn1N2C (stereo partly drawn) [Compound 149] | – | – | IC50 [5]: 43.7 nM |
| C[C@@H]1CC2(CC[C@@H]1C(=O)N(C)C)N(C)C(=O)c1c(O)c(=O)c(-c3nnc(Cc4ccc(F)cc4)s3)cn1N2C (stereo partly drawn) [Compound 150] | – | – | IC50 [4]: 13.3 nM; IC50 [5]: 18.9 nM; IC50 [6]: 221 nM |
| CN1C2CCCCN2C(=O)c2c(O)c(=O)c(-c3nnc(Cc4ccc(F)cc4)s3)cn21 (stereo not drawn) [Compound 153] | – | 16.5 nM | IC50 [6]: 1430 nM |
